From US20190375786A1, “STABLE PEPTIDES AND METHODS OF USE THEREOF” (Fred Hutchinson Cancer Research Center, priority 2016, published 2019)
Positions of bridges follow the written chain, without caps; N, C: chain ends. Residues, ends and D or L forms follow the SMILES beside them.

How the values were obtained:
[1] = target: trypsin (Sus scrofa, UniProt P00761); assay: Trypsin digestion resistance of soluble peptide, RP-HPLC; assay type: in vitro ADME, porcine; design: purchased Sigma Aldrich 6567; details: 500 U/ml trypsin, 30 minutes at 37.5° C.; HPLC peak vs untreated peptide
Sequence of trypsin (P00761 9-231): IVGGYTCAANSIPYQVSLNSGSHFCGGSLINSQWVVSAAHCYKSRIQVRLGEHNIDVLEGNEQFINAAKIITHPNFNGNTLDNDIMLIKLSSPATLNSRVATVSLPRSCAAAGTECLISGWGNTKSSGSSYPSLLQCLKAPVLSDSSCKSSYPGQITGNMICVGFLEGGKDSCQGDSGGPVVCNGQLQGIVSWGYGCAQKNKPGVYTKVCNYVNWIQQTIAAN
Experimental: (§1) Peptides were first suspended in 500 μl of ddH2O to a stock concentration of 2 mg/ml. Reactions were prepared by adding 12.5 μg of peptide from the stock solution to a 10 mM solution of DTT in PBS and allowed to incubate at room temperature for 30 minutes. Other reactions were prepared with 12.5 μg peptide and 500 U/ml trypsin in 25 mM Tris/75 mM NaCl buffer (pH 7.0) and incubated for 30 minutes at 37.5° C. These reactions were then quenched with 5 μg of soybean trypsin inhibitor (I) and, in some cases, 10 mM dithiothreitol (DTT). Reversed phase HPLC (RP-HPLC) was run on samples using an Agilent 1260 HPLC equipped with a C-18 Poroshell 120B column. Sample were analyzed by a gradient method with a mobile phase of Solvent A (water with 0.1% TFA) and Solvent B (acetonitrile with 0.1% TFA). Solvent B was ramped up from 5%-45% of the mobile phase over a period of 10 minutes. For testing pepsin digestion resistance, reactions were prepared with 12.5 μg peptide with or without 500 U/ml pepsin in simulated gastric fluid (SGF; pH 1.05; […] sodium chloride in 0.7% (v/v) hydrochloric acid) and were incubated for 30 minutes at 37.5° C. For testing temperature resistance, peptides were incubated at 70° C., 75° C., or 100° C. for one hour in 0.5 mM PBS, pelleted, and then the supernatant was analyzed by HPLC.
(§2) This example illustrates peptide stability in biological conditions including in the presence of reducing agents, proteases, oxidative conditions, acidic conditions, and simulated gastric fluids. […] Various peptides were suspended in 500 μl of ddH2O at a stock concentration of 2 mg/ml. This was then diluted in accord with the reaction conditions to prevent adverse buffering effects. Reactions were prepared with 12.5 μg peptide dissolved in solution and, in some samples, additionally suspended in a 10 mM solution of DTT, simulated gastric fluid (pH 1.05; […] sodium chloride in 0.7% (v/v) hydrochloric acid), 500 U pepsin (5000 U/ml pepsin), 50 U trypsin (500 U/ml trypsin) with 1 mg/ml inhibitor in PBS, or a combination of any of these conditions. All protease reactions were incubated for 30 min at room temperature and then quenched. Pepsin reactions were quenched by adding Tris base to a final concentration of 0.075 M. Trypsin reactions were quenched by adding excess soybean trypsin inhibitor. RP-HPLC was then run on samples using an Agilent 1260 HPLC equipped with a C-18 Poroshell 120B column. Sample were analyzed by a gradient method with a mobile phase of Solvent A (water with 0.1% TFA) and Solvent B (acetonitrile with 0.1% TFA). Solvent B was ramped up from 5%-45% of the mobile phase over a period of 10 minutes.
Soluble peptides were exposed to 500 U/mL porcine trypsin and analyzed by HPLC. Protease resistance was also assessed by using SDPR-displaying peptides. The SDPR vector is similar to the a surface display GFP FasL(SDGF) vector, but contains a C-terminal 6×His tag (SEQ ID NO: 180) and all basic or aromatic amino acid residues on the stalk removed. Protease resistance is then tested by incubation of cells displaying peptides with trypsin or chymotrypsin, followed by incubation in 10 mM DTT, and staining with an anti-6×His fluorophore-labeled antibody (“6×His” disclosed as SEQ ID NO: 180). If peptides are uncleaved, they retain the His tag and are stained with by the antibody. A control protease-sensitive knottin peptide (SK) was used as a positive control. Cells displaying peptides were treated with up to 40 μg/ml trypsin or chymotrypsin.
FIG. 21 illustrates high performance liquid chromatograph (HPLC) traces of peptides after trypsin digestion. […] The assay was carried out by reconstituting 1 mg porcine trypsin (Sigma Aldrich 6567) in 1 mL of 1 mM HCl. Trypsin was provided at a concentration of 10,000 u/mL and thus, 5 μl of stock solution was equivalent to using 50 U of trypsin in each reaction. Soybean trypsin inhibitor (SA T9128) was prepared at 1 mg/mL of in H2O. […]

[2] = target: pepsin (Sus scrofa, UniProt P00791); assay: Pepsin digestion resistance in simulated gastric fluid, RP-HPLC; assay type: in vitro ADME, porcine; design: purchased Sigma Aldrich P7012; details: 500 U/ml pepsin in SGF pH 1.05, 30 minutes at 37.5° C.; HPLC peak vs untreated peptide
Sequence of pepsin (P00791 60-385): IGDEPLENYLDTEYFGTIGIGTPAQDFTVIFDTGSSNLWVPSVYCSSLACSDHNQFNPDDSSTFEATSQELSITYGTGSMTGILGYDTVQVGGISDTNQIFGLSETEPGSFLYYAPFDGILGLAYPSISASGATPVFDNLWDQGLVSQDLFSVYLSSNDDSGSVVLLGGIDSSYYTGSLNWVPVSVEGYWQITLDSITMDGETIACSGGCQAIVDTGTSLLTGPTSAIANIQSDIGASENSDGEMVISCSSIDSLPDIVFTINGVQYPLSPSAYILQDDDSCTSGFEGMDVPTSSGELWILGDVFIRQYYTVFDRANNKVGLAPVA
Experimental: Peptides were first suspended in 500 ul of ddH2O to a stock concentration of 2 mg/ml. Reactions were prepared by adding 12.5 ug of peptide from the stock solution to a 10 mM solution of DTT in PBS and allowed to incubate at room temperature for 30 minutes. Other reactions were prepared with 12.5 μg peptide with or without 500 U/ml pepsin in simulated gastric fluid (SGF; pH 1.05; […] sodium chloride in 0.7% (v/v) hydrochloric acid) and were incubated for 30 minutes at 37.5° C. Some reactions were quenched with a final concentration of 100 mM Tris base and 10 mM dithiothreitol (DTT). Some reactions were performed in all of the above components, including simulated gastric fluid, pepsin, Tris, and DTT (referred to as SPTD). Reversed phase HPLC (RP-HPLC) was run on samples using an Agilent 1260 HPLC equipped with a C-18 Poroshell 120B column. Sample were analyzed by a gradient method with a mobile phase of Solvent A (water with 0.1% TFA) and Solvent B (acetonitrile with 0.1% TFA). Solvent B was ramped up from 5%-45% of the mobile phase over a period of 10 minutes. Peptides were detected at an absorbance of 214 nm and 280 nm.
as §1, §2
FIG. 20 illustrates high performance liquid chromatograph (HPLC) traces of peptides after pepsin digestion. […]

CC[C@H](C)[C@@H]1NC(=O)[C@@H]2CSSC[C@H](NC(=O)[C@@H](NC(=O)[C@H](C)NC(=O)[C@H](CO)NC(=O)CN)C(C)C)C(=O)N[C@@H](CC(N)=O)C(=O)N[C@@H](CC(C)C)C(=O)N[C@@H](CCCCN)C(=O)N[C@@H](CCCNC(=N)N)C(=O)N[C@H]3CSSC[C@H](NC(=O)[C@H](CCCCN)NC(=O)[C@H](CC(=O)O)NC(=O)CNC1=O)C(=O)N[C@@H](CCC(=O)O)C(=O)N[C@H](C(=O)N[C@H](C(=O)N[C@@H](CCCCN)C(=O)N[C@@H](Cc1c[nH]cn1)C(=O)NCC(=O)O)C(C)C)CSSC[C@H](NC(=O)[C@H](CO)NC(=O)[C@H](CC(C)C)NC(=O)[C@H](CCC(N)=O)NC3=O)C(=O)N[C@@H](CCCNC(=N)N)C(=O)N[C@@H](CO)C(=O)N[C@@H](CC(C)C)C(=O)NCC(=O)N[C@@H](CC(C)C)C(=O)N[C@@H](CC(C)C)C(=O)NCC(=O)N[C@@H](CCCCN)C(=O)N2 [compound 8] (H-GSAVCNLKRCQLSCRSLGLLGKCIGDKCECVKHG-OH; disulfide 5-23, 10-28, 14-30)
Resistance to Trypsin (500 U/ml) [1]: Low (A peptide classified as low indicates that the majority (over 75%) of the HPLC peak of the treated peptide disappeared as compared to the HPLC peak of the untreated peptide) | Resistance to Pepsin (500 U/ml) [2]: High (A peptide classified as high indicates that the majority (at least 75%) of the HPLC peak of the treated peptide is still present as compared to the HPLC peak of the untreated peptide)

CC[C@H](C)[C@H](NC(=O)[C@H](CC(=O)O)NC(=O)[C@@H](NC(=O)[C@@H]1CCCN1C(=O)[C@H](CCCNC(=N)N)NC(=O)[C@H](CO)NC(=O)CN)[C@@H](C)O)C(=O)N[C@@H](CCCCN)C(=O)N[C@H]1CSSC[C@@H]2NC(=O)[C@H](CCCNC(=N)N)NC(=O)CNC(=O)[C@H](CC(N)=O)NC(=O)[C@H]([C@@H](C)O)NC(=O)[C@H](CCCCN)NC(=O)CNC(=O)[C@H](Cc3ccccc3)NC(=O)[C@H](CCCNC(=N)N)NC(=O)[C@H](CO)NC(=O)[C@H](CCCCN)NC(=O)[C@@H]3CSSC[C@@H](C(=O)N[C@@H](Cc4ccccc4)C(=O)O)NC(=O)[C@H](CC(=O)O)NC(=O)[C@H](CSSC[C@H](NC(=O)[C@H](CCC(N)=O)NC(=O)[C@H](Cc4ccc(O)cc4)NC(=O)[C@H](CO)NC(=O)[C@H](C)NC(=O)[C@H](CO)NC1=O)C(=O)N[C@@H](Cc1ccccc1)C(=O)N1CCC[C@H]1C(=O)N[C@@H](C(C)C)C(=O)N3)NC(=O)[C@H](CC(C)C)NC(=O)CNC(=O)[C@H](CC(N)=O)NC(=O)[C@H](C(C)C)NC2=O [compound 10] (H-GSRPTDIKCSASYQCFPVCKSRFGKTNGRCVNGLCDCF-OH; disulfide 9-30, 15-35, 19-37)
Resistance to Trypsin (500 U/ml) [1]: Low (A peptide classified as low indicates that the majority (over 75%) of the HPLC peak of the treated peptide disappeared as compared to the HPLC peak of the untreated peptide) | Resistance to Pepsin (500 U/ml) [2]: High (A peptide classified as high indicates that the majority (at least 75%) of the HPLC peak of the treated peptide is still present as compared to the HPLC peak of the untreated peptide)

CC[C@H](C)[C@@H]1NC(=O)[C@@H]2CSSC[C@H](NC(=O)[C@H](CCCCN)NC(=O)[C@@H](NC(=O)[C@H](CC(N)=O)NC(=O)[C@@H](NC(=O)[C@H](CC(=O)O)NC(=O)[C@@H](NC(=O)[C@H](CCC(N)=O)NC(=O)[C@H](CO)NC(=O)CN)[C@@H](C)CC)[C@@H](C)O)C(C)C)C(=O)N[C@@H](CO)C(=O)NCC(=O)N[C@@H](CO)C(=O)N[C@@H](CO)C(=O)N[C@@H](CCCCN)C(=O)N[C@H]3CSSC[C@H](NC(=O)[C@H](CCCNC(=N)N)NC(=O)CNC(=O)[C@H](CC(N)=O)NC1=O)C(=O)N[C@@H]([C@@H](C)O)C(=O)N[C@H](C(=O)N[C@@H](Cc1ccc(O)cc1)C(=O)N1CCC[C@H]1C(=O)O)CSSC[C@H](NC(=O)[C@H]([C@@H](C)CC)NC(=O)[C@H](CCCCN)NC(=O)[C@H](C(C)C)NC3=O)C(=O)N[C@@H]([C@@H](C)CC)C(=O)N[C@@H](CC(=O)O)C(=O)N[C@@H](CCCNC(=N)N)C(=O)N[C@@H](Cc1ccc(O)cc1)C(=O)N[C@@H](CC(N)=O)C(=O)N[C@@H]([C@@H](C)O)C(=O)N[C@@H](CCCNC(=N)N)C(=O)NCC(=O)N[C@@H](C)C(=O)N[C@@H](CCCCN)C(=O)N2 [compound 35] (H-GSQIDTNVKCSGSSKCVKICIDRYNTRGAKCINGRCTCYP-OH; disulfide 10-31, 16-36, 20-38)
Resistance to Trypsin (500 U/ml) [1]: Low (A peptide classified as low indicates that the majority (over 75%) of the HPLC peak of the treated peptide disappeared as compared to the HPLC peak of the untreated peptide) | Resistance to Pepsin (500 U/ml) [2]: Low (A peptide classified as low indicates that the majority (over 75%) of the HPLC peak of the treated peptide disappeared as compared to the HPLC peak of the untreated peptide)

CC[C@H](C)[C@H](NC(=O)CNC(=O)[C@H](CO)NC(=O)CN)C(=O)N[C@H](C(=O)N[C@H]1CSSC[C@@H]2NC(=O)[C@H]([C@@H](C)CC)NC(=O)[C@H](CC(N)=O)NC(=O)[C@H](C(C)C)NC(=O)[C@H](CCCCN)NC(=O)[C@H](CCCCN)NC(=O)CNC(=O)[C@H](CCC(N)=O)NC(=O)[C@H](CCSC)NC(=O)CNC(=O)[C@@H]3CSSC[C@@H](C(=O)N[C@@H](CCCCN)C(=O)N[C@@H](CCCCN)C(=O)NCC(=O)O)NC(=O)[C@H](CCCCN)NC(=O)[C@H](CSSC[C@H](NC(=O)[C@H](C(C)C)NC(=O)[C@H](CCCCN)NC1=O)C(=O)N[C@@H](CCCCN)C(=O)N[C@@H]([C@@H](C)CC)C(=O)N[C@@H]([C@@H](C)CC)C(=O)N3)NC(=O)[C@H](CCCCN)NC(=O)[C@H]([C@@H](C)CC)NC(=O)[C@@H]1CCCN1C(=O)[C@H](C)NC(=O)[C@H](CCCCN)NC2=O)C(C)C [compound 55] (H-GSGIVCKVCKIICGMQGKKVNICKAPIKCKCKKG-OH; disulfide 6-23, 9-29, 13-31)
Resistance to Trypsin (500 U/ml) [1]: Low (A peptide classified as low indicates that the majority (over 75%) of the HPLC peak of the treated peptide disappeared as compared to the HPLC peak of the untreated peptide) | Resistance to Pepsin (500 U/ml) [2]: High (A peptide classified as high indicates that the majority (at least 75%) of the HPLC peak of the treated peptide is still present as compared to the HPLC peak of the untreated peptide)
